The record followed here is patent US8932597B2 (priority 2008, dated 2015).

The subject of this assay is anti-M2 human monoclonal antibody Z3G1. It is filed as binding.
As to “1386 (SLCCEVETPIRNEWG; epitope peptide) [compound 1386]”, the “Signal (peptides that bind to Z3G1)” value is 1603. For “1311 (MSLLTEVYTPIRNEWGCRCN; epitope peptide) [compound 1311]”, the “Signal (peptides that bind to Z3G1)” value came out at 2181. The same measure, in the same setting: the figure for “1288 (MSLLMEVETPIRNEWGCRCN; epitope peptide) [compound 1288]” is 2847; for “1393 (SLLCEVETCIRNEWG; epitope peptide) [compound 1393]” it is 2531; for “1271 (MSLFTEVETPIRNEWGCRCN; epitope peptide) [compound 1271]” it is 2115.

Consider “1363 (SLLCEVETPICNE; epitope peptide) [compound 1363]”, for which the “Signal (peptides that bind to Z3G1)” value turned out to be 1921. Turning to “1359 (CLLTEVCTPIRNE; epitope peptide) [compound 1359]”, the “Signal (peptides that bind to Z3G1)” value is given as 1585.

Take “1566 (GLLTEVETPIRNEWGCRCNDSSD; epitope peptide) [compound 1566]”: the “Signal (peptides that show specific binding to Z3G1)” value is given as 2321.

Regarding “1387 (SLLCEVETPIRNEWC; epitope peptide) [compound 1387]”, the “Signal (peptides that bind to Z3G1)” value is recorded as 2406. As for “1568 (ILLTEVETPIRNEWGCRCNDSSD; epitope peptide) [compound 1568]”, the “Signal (peptides that show specific binding to Z3G1)” value amounted to 1044. Consider “1259 (MMLLTEVETPIRNEWGCRCN; epitope peptide) [compound 1259]”, for which the “Signal (peptides that bind to Z3G1)” value is on record as 2666. For the substance “1587 (SLLNEVETPIRNEWGCRCNDSSD; epitope peptide) [compound 1587]”, the “Signal (peptides that show specific binding to Z3G1)” value is given as 2425. For the substance “1375 (SLLTEVETPIRNEWCC; epitope peptide) [compound 1375]”, the “Signal (peptides that bind to Z3G1)” value is listed as 1813. In the case of “1356 (CLLTEVETPCRNE; epitope peptide) [compound 1356]”, the “Signal (peptides that bind to Z3G1)” value is on record as 1991. With “1297 (MSLLTQVETPIRNEWGCRCN; epitope peptide) [compound 1297]”, the “Signal (peptides that bind to Z3G1)” value is reported as 1697. As to “1562 (SLLCEVGSCLCEC; epitope peptide) [compound 1562]”, the “Signal (peptides that show specific binding to Z3G1)” value was determined as 2614. With “1261 (MPLLTEVETPIRNEWGCRCN; epitope peptide) [compound 1261]”, the “Signal (peptides that bind to Z3G1)” value is 2521. In the case of “1265 (MWLLTEVETPIRNEWGCRCN; epitope peptide) [compound 1265]”, the “Signal (peptides that bind to Z3G1)” value stood at 2615. Same read-out and setting: the figure for “1497 (CVETPIRNEWLLTEVETPICVETPIRNEW; epitope peptide; MISC_FEATURE (1)..(1): C is an attachment site for a CLIP; MISC_FEATURE (10)..(10): W is an attachment site for a CLIP; MISC_FEATURE (11)..(11): L is an attachment site for a CLIP; MISC_FEATURE (29)..(29): W is an attachment site for a CLIP) [compound 1497]” is 1817; for “1252 (MELLTEVETPIRNEWGCRCN; epitope peptide) [compound 1252]” it is 2679; for “1368 (SLLTEVETPCRNE; epitope peptide) [compound 1368]” it is 1665. Turning to “1473 (CEVETPIRNESLLTEVETPCEVETPIRNE; epitope peptide; MISC_FEATURE (1)..(1): C is an attachment site for a CLIP; MISC_FEATURE (10)..(10): E is an attachment site for a CLIP; MISC_FEATURE (11)..(11): S is an attachment site for a CLIP; MISC_FEATURE (29)..(29): E is an attachment site for a CLIP) [compound 1473]”, the “Signal (peptides that bind to Z3G1)” value turned out to be 2006. On to “1362 (SLLCEVETPIRCE; epitope peptide) [compound 1362]”, for which the “Signal (peptides that bind to Z3G1)” value is listed as 2307. As for “1282 (MSLLFEVETPIRNEWGCRCN; epitope peptide) [compound 1282]”, the “Signal (peptides that bind to Z3G1)” value is 2581. On to “1316 (CSLLCEVETPIRNE; epitope peptide) [compound 1316]”, for which the “Signal (peptides that bind to Z3G1)” value came to 2527. On to “1336 (MSLLCEVGMSCLTEV; epitope peptide) [compound 1336]”, for which the “Signal (peptides that bind to Z3G1)” value is given as 2846. Consider “1584 (SLLIEVETPIRNEWGCRCNDSSD; epitope peptide) [compound 1584]”, for which the “Signal (peptides that show specific binding to Z3G1)” value is 1899. Turning to “1445 (CVETPIRNEWLLTEVETPICLTEVETPIR; epitope peptide; MISC_FEATURE (1)..(1): C is an attachment site for a CLIP; MISC_FEATURE (10)..(10): W is an attachment site for a CLIP; MISC_FEATURE (11)..(11): L is an attachment site for a CLIP; MISC_FEATURE (29)..(29): R is an attachment site for a CLIP) [compound 1445]”, the “Signal (peptides that bind to Z3G1)” value turned out to be 2280. Consider “439 (SLLTEVETPIRNE; epitope peptide) [compound 439]”, for which the “Signal (peptides that bind to Z3G1)” value was 1819. Still for that read-out and setting: the figure for “1390 (SLLCEVETPIRCEWG; epitope peptide) [compound 1390]” is 2601; for “1397 (CLLTEVCTPIRNEWG; epitope peptide) [compound 1397]” it is 1634; for “1309 (MSLLTEVRTPIRNEWGCRCN; epitope peptide) [compound 1309]” it is 2668.

Consider “1459 (CTEVETPIRNLLTEVETPICTEVETPIRN; epitope peptide; MISC_FEATURE (1)..(1): C is an attachment site for a CLIP; MISC_FEATURE (10)..(10): N is an attachment site for a CLIP; MISC_FEATURE (11)..(11): L is an attachment site for a CLIP; MISC_FEATURE (29)..(29): N is an attachment site for a CLIP) [compound 1459]”, for which the “Signal (peptides that bind to Z3G1)” value was determined as 1749. “1350 (MSLLCEVGMCLCTCV; epitope peptide) [compound 1350]”: the “Signal (peptides that bind to Z3G1)” value is given as 2664. Take “1287 (MSLLLEVETPIRNEWGCRCN; epitope peptide) [compound 1287]”: the “Signal (peptides that bind to Z3G1)” value worked out at 2804. For “1579 (SLLDEVETPIRNEWGCRCNDSSD; epitope peptide) [compound 1579]”, the “Signal (peptides that show specific binding to Z3G1)” value is given as 2276. For the substance “1590 (SLLWEVETPIRNEWGCRCNDSSD; epitope peptide) [compound 1590]”, the “Signal (peptides that show specific binding to Z3G1)” value is 2221.

Take “1298 (MSLLTTVETPIRNEWGCRCN; epitope peptide) [compound 1298]”: the “Signal (peptides that bind to Z3G1)” value came to 2699. The same measure, in the same setting: the figure for “1254 (MGLLTEVETPIRNEWGCRCN; epitope peptide) [compound 1254]” is 2635.

As for “1591 (SLLYEVETPIRNEWGCRCNDSSD; epitope peptide) [compound 1591]”, the “Signal (peptides that show specific binding to Z3G1)” value is given as 2181. For “1511 (CLTEVETPIRLLTEVETPICETPIRNEWG; epitope peptide; MISC_FEATURE (1)..(1): C is an attachment site for a CLIP; MISC_FEATURE (10)..(10): R is an attachment site for a CLIP; MISC_FEATURE (11)..(11): L is an attachment site for a CLIP; MISC_FEATURE (29)..(29): G is an attachment site for a CLIP) [compound 1511]”, the “Signal (peptides that show specific binding to Z3G1)” value is 2175.

For the substance “1251 (MDLLTEVETPIRNEWGCRCN; epitope peptide) [compound 1251]”, the “Signal (peptides that bind to Z3G1)” value is 2726. Turning to “1266 (MYLLTEVETPIRNEWGCRCN; epitope peptide) [compound 1266]”, the “Signal (peptides that bind to Z3G1)” value is recorded as 1960.

For the substance “1289 (MSLLNEVETPIRNEWGCRCN; epitope peptide) [compound 1289]”, the “Signal (peptides that bind to Z3G1)” value is 2824. “1273 (MSLMTEVETPIRNEWGCRCN; epitope peptide) [compound 1273]”: the “Signal (peptides that bind to Z3G1)” value amounted to 2804. Still for that read-out and setting: in the case of “1305 (MSLLTEVKTPIRNEWGCRCN; epitope peptide) [compound 1305]” it was 2708; in that of “1320 (MCLLTEVETPCRNE; epitope peptide) [compound 1320]”, 2404; in that of “1268 (MSMLTEVETPIRNEWGCRCN; epitope peptide) [compound 1268]”, 1329. For “1272 (MSLHTEVETPIRNEWGCRCN; epitope peptide) [compound 1272]”, the “Signal (peptides that bind to Z3G1)” value stood at 2058. Consider “1581 (SLLFEVETPIRNEWGCRCNDSSD; epitope peptide) [compound 1581]”, for which the “Signal (peptides that show specific binding to Z3G1)” value was determined as 2137. “1398 (SLLTEVETPIRNECC; epitope peptide) [compound 1398]”: the “Signal (peptides that bind to Z3G1)” value was found to be 1493.

With “1580 (SLLEEVETPIRNEWGCRCNDSSD; epitope peptide) [compound 1580]”, the “Signal (peptides that show specific binding to Z3G1)” value is 2420. With “1371 (SLLCEVETPIRNE; epitope peptide) [compound 1371]”, the “Signal (peptides that bind to Z3G1)” value is listed as 2511. For the substance “1514 (CVETPIRNEWLLTEVETPICETPIRNEWG; epitope peptide; MISC_FEATURE (1)..(1): C is an attachment site for a CLIP; MISC_FEATURE (10)..(10): W is an attachment site for a CLIP; MISC_FEATURE (11)..(11): L is an attachment site for a CLIP; MISC_FEATURE (29)..(29): G is an attachment site for a CLIP) [compound 1514]”, the “Signal (peptides that show specific binding to Z3G1)” value is listed as 2575. On to “1264 (MVLLTEVETPIRNEWGCRCN; epitope peptide) [compound 1264]”, for which the “Signal (peptides that bind to Z3G1)” value is reported as 2465. Take “1340 (MSCLTEVGMSLLCEV; epitope peptide) [compound 1340]”: the “Signal (peptides that bind to Z3G1)” value came out at 2341.
